Legend:
[1] = biological target: T1, human p110α subunit of PI3K (PI3Kα) (Homo sapiens, UniProt P42336); assay: Solid-Phase Lipid Kinase p110α assay; type: biochemical; settings: recombinant truncated (ΔN 1-108) p110α, 7.5 ng/well; final 10 μM ATP; RT 2 hours
T1 construct: His6 (N); made in house; host or cells: S. frugiperda 9 (Sf9) insect cells
Source text: [Determination of IC50 Values of Compounds in Kinase Assay of PI3Kα]
Phosphatidylinositol (Ptdlns) and phosphatidylserine (PtdSer) were purchased from DOOSAN SERDARY RESEARCH LABORATORIES (Toronto, Canada). Recombinant truncated forms (ΔN 1-108) of the human p110α and p110β subunits of PI3K with N-terminal His6-Tags were expressed in S. frugiperda 9 insect cells. Recombinant human PI3Kγ (full length human PI3K p1107 fused with a His6-tag at the C-terminus expressed in S. frugiperda 9 insect cells) was obtained from ALEXIS BIOCHEMICALS (#201-055-C010; San Diego, Calif.). [γ^33P]ATP and unlabeled ATP were purchased from AMERSHAM PHARMACIA BIOTECH (Buckinghamshire, UK) and ROCHE DIAGNOSTICS (Mannheim, Germany), respectively. Scintillation cocktails Ultima Gold™ scintillation cocktail were purchased from PERKIN ELMER. Maxisorp™ plates were purchased from NALGE NUNC INTERNATIONAL K.K. (Tokyo, Japan). All other chemicals not further specified were from WAKO PURE CHEMICALS (Osaka, Japan). […]
(§1) The radioactivity incorporated into the immobilized PI substrate was determined with a BetaPlate Liquid Scintillation Counter (PerkinElmer).
(§2) The inhibition percent at each concentration of compound was calculated, and IC50 values were determined from the inhibition of curve.

[2] = biological target: T2, human p110β subunit of PI3K (PI3Kβ) (Homo sapiens, UniProt P42338); assay: Solid-Phase Lipid Kinase p110β assay; type: biochemical; settings: recombinant truncated (ΔN 1-108) p110β, 7.5 ng/well; otherwise as PI3Kα assay
T2 construct: His6 (N); made in house; host or cells: S. frugiperda 9 (Sf9) insect cells
T2 sequence (P42338 109-1070): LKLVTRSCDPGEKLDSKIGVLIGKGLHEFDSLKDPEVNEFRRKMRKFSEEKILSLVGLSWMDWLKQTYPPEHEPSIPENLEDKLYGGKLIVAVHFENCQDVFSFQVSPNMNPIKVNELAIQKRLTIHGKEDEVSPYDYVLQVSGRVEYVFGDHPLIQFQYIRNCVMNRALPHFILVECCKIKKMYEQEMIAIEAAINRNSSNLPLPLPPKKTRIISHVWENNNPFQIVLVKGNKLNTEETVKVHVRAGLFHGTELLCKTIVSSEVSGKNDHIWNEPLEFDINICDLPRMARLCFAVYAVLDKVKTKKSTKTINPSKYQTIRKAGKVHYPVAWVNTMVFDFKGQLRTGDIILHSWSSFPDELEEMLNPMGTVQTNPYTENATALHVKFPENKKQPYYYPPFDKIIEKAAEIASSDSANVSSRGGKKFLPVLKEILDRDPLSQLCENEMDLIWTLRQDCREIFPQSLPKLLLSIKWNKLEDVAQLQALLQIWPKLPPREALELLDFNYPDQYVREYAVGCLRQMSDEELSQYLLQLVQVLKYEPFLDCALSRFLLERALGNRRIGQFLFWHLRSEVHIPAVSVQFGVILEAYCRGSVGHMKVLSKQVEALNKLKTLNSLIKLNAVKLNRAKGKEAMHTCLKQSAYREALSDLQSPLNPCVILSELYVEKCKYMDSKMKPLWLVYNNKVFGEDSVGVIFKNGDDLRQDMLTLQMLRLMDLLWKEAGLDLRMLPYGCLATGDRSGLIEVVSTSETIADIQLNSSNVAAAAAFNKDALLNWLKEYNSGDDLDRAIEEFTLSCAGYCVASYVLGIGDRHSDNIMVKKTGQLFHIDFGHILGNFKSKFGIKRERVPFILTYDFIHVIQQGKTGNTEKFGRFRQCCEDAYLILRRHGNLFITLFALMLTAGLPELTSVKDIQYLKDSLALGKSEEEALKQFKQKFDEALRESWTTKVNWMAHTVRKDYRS
Protocol: To assess inhibition of PI3Kα by compounds, the Maxisorp™ plates were coated with 50 μL/well of a solution containing 50 μg/ml Ptdlns and 50 μg/ml PtdSer dissolved in chloroform:ethanol (3:7). The plates were subsequently air-dried by incubation for at least 2 hours in a fume hood. The reaction was set up by mixing 25 μL/well of assay buffer 2× (100 mM MOPSO/NaOH, 0.2 M NaCl, pH 7.0, 8 mM MgCl2, 2 mg/mL BSA (fatty acid-free)), and 7.5 ng/well PI3Kα in the lipid pre-coated plate. 10× test compounds were added in 2% DMSO. The reaction was started by adding 5 μL/well of a 40 μM ATP mix (final 10 μM ATP; 20 μCi/ml[γ^33P]ATP). After incubation at RT for 2 hours, the reaction was terminated by adding 5 μl/well stop solution (25 mM EDTA, pH 8.0). The plate was then washed twice with Tris-buffered saline (TBS, pH 7.4). Ultima Gold™ (PERKINELMER) scintillation mix was added at 25 μL/well.
as §1, §2
A recombinant truncated form (ΔN 1-108) of the human p110β or […] subunit of PI3K with an N-terminal His6-Tag was expressed in S. frugiperda 9 insect cells. […]

T1 sequence (P42336 109-1068): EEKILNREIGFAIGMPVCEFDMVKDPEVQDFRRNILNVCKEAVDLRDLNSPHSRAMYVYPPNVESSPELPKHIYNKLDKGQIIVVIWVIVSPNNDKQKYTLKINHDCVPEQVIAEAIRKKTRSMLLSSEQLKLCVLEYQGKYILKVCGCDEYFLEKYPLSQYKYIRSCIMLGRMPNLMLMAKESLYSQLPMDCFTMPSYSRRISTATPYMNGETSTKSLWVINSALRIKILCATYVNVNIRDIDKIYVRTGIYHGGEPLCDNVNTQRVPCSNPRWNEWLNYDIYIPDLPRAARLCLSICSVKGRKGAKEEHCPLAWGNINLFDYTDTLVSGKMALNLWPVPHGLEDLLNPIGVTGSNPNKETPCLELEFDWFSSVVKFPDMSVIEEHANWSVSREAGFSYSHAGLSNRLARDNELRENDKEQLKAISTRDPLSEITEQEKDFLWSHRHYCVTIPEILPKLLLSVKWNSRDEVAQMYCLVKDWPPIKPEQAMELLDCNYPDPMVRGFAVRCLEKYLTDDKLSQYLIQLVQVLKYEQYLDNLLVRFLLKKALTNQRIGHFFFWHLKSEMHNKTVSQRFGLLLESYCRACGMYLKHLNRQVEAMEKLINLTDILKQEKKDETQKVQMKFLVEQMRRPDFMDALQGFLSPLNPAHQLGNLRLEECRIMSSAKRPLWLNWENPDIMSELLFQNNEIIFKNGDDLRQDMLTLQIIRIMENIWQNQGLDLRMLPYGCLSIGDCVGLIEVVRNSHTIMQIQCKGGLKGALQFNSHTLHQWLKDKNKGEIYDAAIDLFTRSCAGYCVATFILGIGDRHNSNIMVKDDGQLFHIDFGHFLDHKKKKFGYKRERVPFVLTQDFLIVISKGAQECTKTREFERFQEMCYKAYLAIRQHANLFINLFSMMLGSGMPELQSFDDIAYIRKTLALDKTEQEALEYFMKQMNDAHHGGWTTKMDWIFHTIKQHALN

SMILES	IC50 [1] [nM]	IC50 [2] [nM]
COc1c(OCCCN2CCOCC2=O)ccc2c1N=C(NC(=O)c1cnc(N)nc1)N1CCN=C21 [drawing 15, 2-amino-N-{7-methoxy-8-[3-(3-oxomorpholin-4-yl)propoxy]-2,3-dihydroimidazo[1,2-c]quinazolin-5-yl}pyrimidine-5-carboxamide]	0.7	
COc1c(OCCCN2CCOCC2=O)ccc2c1N=C(NC(=O)c1cnc(N)nc1)N1CCN=C21 [drawing 16, 2-amino-N-{7-methoxy-8-[3-(3-oxomorpholin-4-yl)propoxy]-2,3-dihydroimidazo[1,2-c]quinazolin-5-yl}pyrimidine-5-carboxamide]		13
